In US20070060610A1, “Methods and pharmaceutical formulations for increasing bioavailability” (priority 2005, published 2007):

Tested on: Caco-2 monolayers
Conditions: FIG. 1A; different pre-incubation times; Rhodamine 123 13 μM; TPGS 1000 33 μM on both sides
Description: Caco-2 cell culture and handling: Caco-2 cells, clone C2BBe1, were purchased from American Type Culture Collection (ATCC; Manassas, Va.) and used from passage 70-92 with Corning Incorp. Life Sciences (Acton, Mass.) polycarbonate membranes (3460; 12-well, pore size 0.4 μm, 1.13 cm^2). Cells were seeded at a density of ˜60,000 cells/cm^2 and grown at ˜37° C. in a controlled atmosphere of ˜5% CO2 with a relative humidity of ˜85%. The culture medium consisted of DMEM supplemented with 10% FBS, 1% non-essential amino acids, 100 μg/mL streptomycin and 100 U/mL penicillin. Transepithelial electrical resistance (TEER) was measured with a hand-held REMS electrical volt-ohm meter EVOM (World Precision Instruments; Sarasota, Fla.). […]
Using the transport assay, drug transport was assessed in absorptive (apical to basolateral, Ap→Bl) and secretory (Bl→Ap) directions. […]
Cell monolayers were agitated using an orbital shaker (IKA®—Werke GmbH & CO KG; Staufen, Germany) at 100±20 rpm. […] RHO was quantified with a Cytofluor-2 fluorescence plate reader (Perkin Elmer Biosystems; Weiterstadt, Germany) operating at excitation wavelength of 485 nm and emission wavelength of 530 nm to measure RHO.
Apparent Permeability and statistical analysis: flux was determined using receiver compartment RHO steady-state appearance rates (ΔQ/Δt). Papp across Caco-2 monolayers was calculated via: [formula] […]

For “d-α-tocopheryl polyethylene glycol succinate [TPGS 1000]”, the “effect of pre-exposure on amount of compound transported across the cells (apical to basolateral)” value was “effectively increases the amount of compound transported across the cells (apical to basolateral) in a time-dependent fashion”.
